The text below walks through data of patent US20100292255A1, “Therapeutic Compounds and Their Use in Treating Diseases and Disorders” (Myriad Pharmaceuticals, Inc., priority 2007, published 2010).

The target in this experiment is T1, purified human Hsp90.
T1 construct: purified human Hsp90 (Stressgen, SPP-770)
Briefly: Hsp90 binding assay: displacement of BODIPY-labeled geldanamycin measured by fluorescence polarization. Conditions: BODIPY-GM 10 nM, Hsp90 30 nM, overnight at room temperature; for IC50: read-out: GM displacement from purified Hsp90 measured by FP IC 50; for GM displacement from purified Hsp90 measured by FP Inhibition by 5 μM compd. (%): 5 μM compound. As for the experimental part: Binding of the Example Compounds to purified Hsp90 was assayed by measuring the displacement of BODIPY-labeled geldanamycin (BODIPY-GM) from purified human Hsp90, using a fluorescence polarization assay adapted from Kim et al. (J. Biomolec. Screening, 9(5):375-381 (2004)). Compound dilutions (in 100% DMSO) were added to black-bottom 96-well plates (Greiner Bio-One, Monroe, N.C.) in 2% DMSO final, and equal volumes of BODIPY-GM (10 nM final) and purified human Hsp90 (Stressgen, SPP-770; 30 nM final) (Assay Designs, Ann Arbor, Mich.) in assay buffer (20 mM HEPES-KOH pH 7.3, 50 mM KCl, 5 mM MgCl2, 20 mM Na2MoO4, 0.01% NP-40, 0.1 mg/mL bovine gamma globulin [P2045; Invitrogen, Carlsbad, Calif.], 2 mM DTT) were added sequentially to yield a final volume of 50 microliters. Plates were incubated overnight at room temperature. Parallel and perpendicular fluorescence measurements were read (Analyst AD plate reader; LJL BioSystems, Middletown, Conn.) with excitation/emission wavelengths of 485/530 nm. Background fluorescence (buffer only) was subtracted, and fluorescence polarization (FP) values, expressed in mP units, were calculated from parallel and perpendicular fluorescence readings as follows:
FP=(parallel−perpendicular)/(parallel+perpendicular)*1000.
Percent inhibition was calculated by normalizing the FP values to those obtained in parallel reactions containing DMSO and subtracting these normalized values from 100%. Intrinsic compound fluorescence was independently monitored, and FP data points confounded by compound fluorescence were excluded from the analysis.

In the case of `CC(=O)N1CCC(CCn2c(Sc3cc4c(cc3CC#N)OCO4)nc3c(N)ncnc32)CC1` [compound 75, [6-({9-[2-(1-Acetylpiperidin-4-yl)ethyl]-6-amino-9H-purin-8-yl}thio)-1,3-benzodioxol-5-yl]acetonitrile], the IC50 was determined as 2500 nM. In the case of `Nc1ncnc2c1nc(Sc1cc3c(cc1[N+](=O)[O-])OCCO3)n2CCC1CCN(C=O)CC1` [compound 66, 4-(2-{6-Amino-8-[(7-nitro-2,3-dihydro-1,4-benzodioxin-6-yl)thio]-9H-purin-9-yl}ethyl)piperidine-1-carbaldehyde], the IC50 came out at 73 nM. Same read-out and setting: in the case of `Nc1ncnc2c1nc(Sc1cc(Br)c3c(c1)CCO3)n2CCC1CCN(C=O)CC1` [Example Compound 179, 4-(2-{6-Amino-8-[(7-bromo-2,3-dihydro-1-benzofuran-5-yl)thio]-9H-purin-9-yl}ethyl)piperidine-1-carbaldehyde] it was 4000 nM. As for `CS(=O)(=O)N1CCCCC1CCn1c(Sc2cc3c(cc2Br)OCCO3)nc2c(N)ncnc21` (stereo not shown) [compound 10, 8-[(7-Bromo-2,3-dihydro-1,4-benzodioxin-6-yl)thio]-9-{2-[1-(methylsulfonyl)piperidin-2-yl]ethyl}-9H-purin-6-amine], the IC50 is 160 nM. Still for that read-out and setting: the value for `CS(=O)(=O)N1CCCC(CCn2c(Sc3cc4c(cc3C#N)OCCO4)nc3c(N)ncnc32)C1` (stereo not shown) [compound 52, 7-[(6-Amino-9-{2-[1-(methylsulfonyl)piperidin-3-yl]ethyl}-9H-purin-8-yl)thio]-2,3-dihydro-1,4-benzodioxine-6-carbonitrile] was 150 nM; that for `CC(C)(C)OC(=O)N1CCC(CCn2c(Sc3cc4occc4cc3Br)nc3c(N)ncnc32)CC1` [Example Compound 191, tert-Butyl 4-(2-{6-amino-8-[(5-bromo-1-benzofuran-6-yl)thio]-9H-purin-9-yl}ethyl)piperidine-1-carboxylate] was 2500 nM. On the same count and under the same terms, the value for `C[C@@H](O)C(=O)N1CCC(CCn2c(Sc3cc4c(cc3Br)OCCO4)nc3c(N)ncnc32)CC1` [compound 113, (2R)-1-[4-(2-{6-Amino-8-[(7-bromo-2,3-dihydro-1,4-benzodioxin-6-yl)thio]-9H-purin-9-yl}ethyl)piperidin-1-yl]-1-oxopropan-2-ol] was 72 nM. `Nc1ncnc2c1nc(Sc1cc3c(cc1Br)OCO3)n2C1CCN(C=O)CC1` [Example Compound 213, 4-{6-Amino-8-[(6-bromo-1,3-benzodioxol-5-yl)thio]-9H-purin-9-yl}piperidine-1-carbaldehyde]: the IC50 worked out at 580 nM.

In the case of `COc1ccc(C#N)c(Sc2nc3c(N)ncn(CCC4CCN(C(=O)CO)CC4)c-3n2)c1` [compound 105, 2-({6-Amino-3-[2-(1-glycoloylpiperidin-4-yl)ethyl]-3H-purin-8-yl}thio)-4-methoxybenzonitrile], the “GM displacement from purified Hsp90 measured by FP Inhibition by 5 μM compd. (%)” value is given as 17.0%. For `CN(C)C(=O)c1cc2c(cc1Sc1nc3c(N)ncnc3n1CCC1CCN(C=O)CC1)OCO2` [Example Compound 193, 6-({6-amino-9-[2-(1-formylpiperidin-4-yl)ethyl]-9H-purin-8-yl}thio)-N,N-dimethyl-1,3-benzodioxole-5-carboxamide], the IC50 came out at 4300 nM. As to `Nc1ncnc2c1nc(Sc1cc3occc3cc1Cl)n2CCC1CCN(C=O)CC1` [Example Compound 178, 4-(2-{6-Amino-8-[(5-chloro-1-benzofuran-6-yl)thio]-9H-purin-9-yl}ethyl)piperidine-1-carbaldehyde], the IC50 was 305 nM. On the same count and under the same terms, in the case of `COCC(=O)N1CCC(CCn2c(Sc3cc4c(cc3C#N)OCCO4)nc3c(N)ncnc32)CC1` [compound 45, 7-[(6-Amino-9-{2-[1-(methoxyacetyl)piperidin-4-yl]ethyl}-9H-purin-8-yl)thio]-2,3-dihydro-1,4-benzodioxine-6-carbonitrile] it was 220 nM. `Nc1ncn(CCn2c(=O)n3n(c2=O)CC=CC3)c2nc(Sc3cc4c(cc3Br)OCO4)nc1-2` [compound 30, 2-(2-{6-Amino-8-[(6-bromo-1,3-benzodioxol-5-yl)thio]-3H-purin-3-yl}ethyl)-5,8-dihydro-1H-[1,2,4]triazolo[1,2-a]pyridazine-1,3(2H)-dione]: the “GM displacement from purified Hsp90 measured by FP Inhibition by 5 μM compd. (%)” value was 23.0%. Regarding `C[C@@H](OC(=O)C(C)(C)C)C(=O)N1CCC(CCn2c(Sc3cc4occc4cc3Br)nc3c(N)ncnc32)CC1` [Example Compound 200, (1R)-2-[4-(2-{6-Amino-8-[(5-bromo-1-benzofuran-6-yl)thio]-9H-purin-9-yl}ethyl)piperidin-1-yl]-1-methyl-2-oxoethyl pivalate], the IC50 worked out at 185 nM.

Turning to `CC(C)C(=O)N1CCC(CCn2cnc(N)c3nc(Sc4cc5c(cc4Br)OCCO5)nc2-3)CC1` [compound 24, 8-[(7-Bromo-2,3-dihydro-1,4-benzodioxin-6-yl)thio]-342-(1-isobutyrylpiperidin-4-ypethyl]-3H-purin-6-amine], the “GM displacement from purified Hsp90 measured by FP Inhibition by 5 μM compd. (%)” value came out at 28.0%.

Regarding `CS(=O)(=O)N1CCCC(CCn2cnc(N)c3nc(Sc4cc5c(cc4Br)OCCO5)nc2-3)C1` (stereo not shown) [compound 13, 8-[(7-Bromo-2,3-dihydro-1,4-benzodioxin-6-yl)thio]-3-{2-[1-(methylsulfonyl)piperidin-3-yl]ethyl}-3H-purin-6-amine], the “GM displacement from purified Hsp90 measured by FP Inhibition by 5 μM compd. (%)” value is 38.0%. For `Nc1ncnc2c1nc(Sc1cc3c(cc1Br)OCO3)n2CCn1c(=O)n2n(c1=O)CC=CC2` [compound 29, 2-(2-{6-Amino-8-[(6-bromo-1,3-benzodioxol-5-yl)thio]-9H-purin-9-yl}ethyl)-5,8-dihydro-1H-[1,2,4]triazolo[1,2-a]pyridazine-1,3(2H)-dione], the IC50 amounted to 1800 nM.

Regarding `Nc1ncnc2c1nc(Sc1cc3occc3cc1Br)n2CCC1CCN(C(=O)CO)CC1` [Example Compound 195, 2-[4-(2-{6-Amino-8-[(5-bromo-1-benzofuran-6-yl)thio]-9H-purin-9-yl}ethyl)piperidin-1-yl]-2-oxoethanol], the IC50 came out at 45 nM. In the case of `CO[C@H](C)C(=O)N1CCC(CCn2c(Sc3cc4c(cc3C#N)OCCO4)nc3c(N)ncnc32)CC1` [compound 44, 7-{[6-Amino-9-(2-{1-[(2R)-2-methoxypropanoyl]piperidin-4-yl}ethyl)-9H-purin-8-yl]thio}-2,3-dihydro-1,4-benzodioxine-6-carbonitrile], the IC50 is 300 nM.

Regarding `Nc1ncnc2c1nc(Sc1cc3c(cc1Br)CCO3)n2CCC1CCN(C=O)CC1` [Example Compound 167, 4-(2-{6-Amino-8-[(5-bromo-2,3-dihydro-1-benzofuran-6-yl)thio]-9H-purin-9-yl}ethyl)piperidine-1-carbaldehyde], the IC50 worked out at 42 nM. `COc1ccc(Br)c(Sc2nc3c(N)ncn(CCC4CCN(C(C)=O)CC4)c-3n2)c1` [compound 19, 3-[2-(1-Acetylpiperidin-4-yl)ethyl]-8-[(2-bromo-5-methoxyphenyl)thio]-3H-purin-6-amine]: the “GM displacement from purified Hsp90 measured by FP Inhibition by 5 μM compd. (%)” value is on record as 10.0%. For `C[C@H](O)C(=O)N[C@@H](C)C(=O)N1CCC(Cn2c(Sc3cc4c(cc3Br)OCCO4)nc3c(N)ncnc32)CC1` [compound 130, (2S)—N-{(1S)-2-[4-({6-Amino-8-[(7-bromo-2,3-dihydro-1,4-benzodioxin-6-yl)thio]-9H-purin-9-yl}methyl)piperidin-1-yl]-1-methyl-2-oxoethyl}-2-hydroxypropanamide], the IC50 came to 1100 nM.
